These results are taken from a melting point compilation (Tetko et al.; mined from patent text by program, amines drawn as free bases though some values may be those of a salt).

One may read the melting point as the temperature, or range, at which the solid turns liquid. For the compound `CCC(CC)(CC(=O)Nc1cccc(/C=C/c2nc(C3CCCC3)cs2)c1)C(=O)O`, the melting point was 172 to 174 °C.
The same measure for `O=C(SSCCSSC(=O)N1CCOCC1)N1CCOCC1`: 178 to 179 °C; for `CC(=O)Nc1ccc2nc3n(c2c1)CCC3`: 250 to 255 °C.
Then `COc1cc(/C=C/C(=O)Oc2ccc(NC(C)=O)cc2)ccc1O`, with 185 to 195 °C; and `CC(C)=CCCOc1c(-c2ccc(S(C)(=O)=O)cc2)cnn(-c2cccc(Cl)c2)c1=O`, with 110 to 111 °C.
Then `Cc1cc(-c2cccc(C(=O)CC(=O)OC(C)(C)C)c2)on1`, with 50 to 56 °C; and `NC(=O)c1nnn(Cc2cccc(Cl)c2Cl)c1N`, with 224 to 226 °C.
With `Cc1nc(Sc2ccc([N+](=O)[O-])cc2)nc(C)c1Cl`, the melting point came out at 110 °C.
The same measure for `NCc1ccc2c(c1)N(C1CCN(CCc3ccc(F)cc3)CC1)CC2`: 83 to 85 °C; for `Cc1ccc2c3c(ccc2n1)OCC(CNCC1CCc2[nH]c4ccc(Cl)cc4c2C1)O3` (stereo not given): 104 to 105 °C.
Then `CC[C@H](C)C(OCc1ccccc1)[C@H]1[C@H]([N+](=O)[O-])[C@@H](c2cccs2)N[C@@H]1C(=O)NCCC(=O)O` (stereo not given in full), with 79 to 80 °C.
The same measure for `C#CC(=O)NC[C@@H]1CN2C(=O)C[C@H]2O1` (racemic): 76.5 to 78 °C.
In turn, `CCOC(=O)CCNCC(O)COc1cccc(OC)c1` (stereo not given) came in with a melting point of 72 °C.
In turn, `O=c1[nH]c(=O)n(C2CC(O)C(CO)O2)cc1C#CI` (stereo not given) came in with a melting point of 135 to 137 °C.
`CN(C)c1cc(C(=O)O)ncn1` displayed a melting point of 250 °C.
For the compound `O=S(=O)(c1cccc2ccccc12)c1n[nH]c2ccc(OCC3CCNCC3)cc12`, the melting point lay in the range of 175 to 177 °C.
Then `OCCc1coc2c(O)cccc12`, with 116 to 117 °C; and `Cc1cccc(C(=O)C=C2CCCN2C)c1`, with 60 to 62 °C; and `CNC(=S)Nc1ccc(C2=NNC(=O)CC2C)cc1` (stereo not given), with 213 °C.
`O=C(O)C(=O)Cc1ccsc1` yielded a melting point of 203 to 204 °C.
`Cc1nnc(-c2ccc3occ(-c4cnn(Cc5cccnc5)c4)c3c2)o1` returned a melting point of 137 to 138 °C.
`COC(=O)c1ccc(C=CC(=O)N2CCc3c([nH]c4ccccc34)C2c2ccccc2)cc1` (stereo not given) came in with a melting point of 222 °C.
`NC(=O)COc1ccc(CN2C(=O)C3(COc4cc5c(cc43)OCCO5)c3ccccc32)cc1` (stereo not given) gave a melting point of 225 to 227 °C.
Then `CC(C)CNC(=O)NS(=O)(=O)c1ccc(CCNC(=O)N2CCCCC2=O)cc1`, with 179 to 181 °C; and `CC(F)(F)c1cccc(C[C@H]2NC(=O)O[C@H]2c2ccc(F)cc2)c1` (racemic), with 143 to 144 °C.
The compound `CC(=O)On1c(=N)n[n+]([O-])c2ccccc21` registered a melting point of 194 to 196 °C.
With `O=C(CCC(F)(F)F)N[C@H]1CC[C@H](CCN2CCC(c3cccc4c3CCO4)CC2)CC1`, the melting point stood at 200 °C.
In turn, `CC(=O)N1N=C(c2ccncc2)OC1(C)C` registered a melting point of 117 to 118 °C.
Turning to `COc1ccc(C=NCC(OC)OC)cc1OC`, the melting point lay within 50 to 52 °C.
Then `N#CC(C#N)c1cccc(Br)c1`, with 97 to 99 °C; and `O=C(OCc1cc(-c2ccccc2)c(=O)n2c1-c1sccc1CC2)N1CCOCC1`, with 163 to 164 °C; and `CCn1c(=O)c2[nH]c(/C=C/c3ccc(OC)cc3OC)nc2n(CC)c1=O`, with 279 to 280 °C.
The same measure for `CCCNc1ncnc2c1ncn2C1CC(F)C(CO)O1` (stereo not given): 114 to 115 °C.
The compound `CCOC(CCCN1CCC(NC(=O)c2ccccc2)CC1)OCC` showed a melting point of 95 °C.
For the compound `CCc1noc(-c2cn(-c3cccc(Cl)c3)cn2)n1`, the melting point lay in the range of 134 to 135 °C.
On to `CCOC(=O)c1ncc2[nH]c3c(c2c1COC)C(=O)CCC3`, for which the melting point was in the range of 249 to 250 °C.
In the case of `NC(=O)COc1cccc(N)c1`, the melting point was in the range of 107 to 111 °C.
For `CC(=O)N(C#N)C/C=C\CN(C#N)C(C)=O`, the melting point was 73.8 to 75.2 °C.
`CCOC(=O)c1cnn2c(NCc3ccc(-c4ccccc4C#N)cc3)ccnc12` returned a melting point of 148 to 150 °C.
Regarding `CC(C)(C)OC(=O)N[C@@H](Cc1ccc(O)cc1)C(=O)N[C@H](Cc1ccccc1)C(=O)NCC(=O)OCc1ccccc1`, the melting point stood at 169 °C.
`COc1cc(Nc2nccc(-c3sc(-c4cccnc4)nc3C)n2)cc(OC)c1OC` showed a melting point of 210 to 211 °C.
With `CC1Sc2c(C(=O)O)c(=O)c3cc(F)c(N4CCC(O)C4)cc3n21` (stereo not given), the melting point is 206 to 208 °C.
As to `CC(C)(C)c1cc(CCC(=O)NN2C(=O)C=CC2=O)cc(C(C)(C)C)c1O`, the melting point was 90 to 94 °C.
For the compound `COC(=O)c1cc(C(F)(F)F)cc(OCc2ccccc2)c1OCc1ccccc1`, the melting point fell in the range of 78 to 79 °C.
For `CON=Cc1sc(-c2ccc(O)cc2C)c(C)c1-c1ccc(O)c(F)c1`, the melting point fell in the range of 172 to 177 °C.
As for `CC(C(=O)NC1Cc2ccccc2CC1O)c1ccccc1` (stereo not given), the melting point came out at 158 °C.
Then `CC(C)SC(=O)N1CCN(c2ccc3ncc(Br)n3n2)CC1`, with 186 to 187 °C; and `ON=C(c1ccc(F)cc1)c1ccc(O)c(Cl)c1Cl`, with 150 to 156 °C.
Compound `CCOCCNC(=O)c1cccc(-c2cccc3cc(Cc4cc(F)cc(Cl)c4)sc23)c1` had a melting point of 79 to 80 °C.
As to `CCOCc1nc2c(N)nc3cc(N4CCOC4=O)ccc3c2n1CCCOC(C)C`, the melting point was 166 to 167 °C.
Then `Cn1cc(C(=O)c2ccc3ccccc3c2)cc1C(=O)c1cccnc1`, with 132 to 133 °C; and `O=C1CCC(N2Cc3c(CNC(=O)c4ccncc4)cccc3C2=O)C(=O)N1` (stereo not given), with 282 to 284 °C.
Take `CCOC(=O)C(C#N)C1(C#N)C(=O)N(Cc2ccc(F)cc2)c2c(C)cccc21` (stereo not given): the melting point lay in the range of 130 to 132 °C.
`Cc1c(NC(=O)c2ccc(-c3ccc4c(c3)CCCO4)cc2)ccc2cc(CN3CCCC3)cnc12` showed a melting point of 195 to 197 °C.
The compound `COc1cc2nc(N3CCN(c4ccnc(Cl)n4)CC3)cc(N)c2cc1OC` had a melting point of 266 °C.
The same measure for `CCOC(=O)c1cn(-c2nsnc2C)c2nc(Cl)c(F)cc2c1=O`: 192 °C; for `C[C@H](C(=O)O)c1ccc2cc(OCCCCCCc3ccc(O)c(O)c3)ccc2c1`: 103 to 106 °C; for `CCCN(C(C)=O)c1cccc(-c2ccc3nnc(C)n3n2)c1`: 145 to 149 °C.
As for `O=C(NCCOCCO)C12CC3CC(CC(C3)C1)C2`, the melting point lay in the range of 72 to 73 °C.
With `Nc1nc(N)c2nc(-c3cccc(O)c3)cnc2n1`, the melting point is greater than 300 °C.
The same measure for `CCOC(=O)c1nc2cc(Br)ccc2c(O)c1C(=O)OCC`: 234 °C; for `CCCCOc1ccc(S(=O)(=O)N2CC(N(Cc3ccccc3)CC(O)COc3cccc4[nH]c5ccccc5c34)C2)cc1` (stereo not given): 65 to 67 °C.
`CCCS(=O)c1ccc([N+](=O)[O-])c(N)c1` (stereo not given) gave a melting point of 128 to 130 °C.
Consider `CC(C)c1ccccc1NC(=O)c1ccccc1C(c1ccc(O)cc1)c1ccc(O)cc1`, for which the melting point lay in the range of 225 to 227 °C.
The same measure for `O=C(Nc1ccc(F)c(CBr)c1)c1ccccn1`: 137 to 138 °C.
As for `Cc1cccc(-c2nc(-c3ccc(S(C)=O)cc3)sc2-c2ccnc(C)c2)c1` (stereo not given), the melting point was in the range of 128 to 130 °C.
`COc1ccc(-c2nnc(C(C)C)n2-c2ccc(OC)cc2)cc1`: the melting point turned out to be 162 °C.
Then `O=c1[nH]c2cc(Cl)c(Cl)cc2c(O)c1-c1ccccc1`, with 347 to 349 °C.
`Cn1nnc2c(N3CCOCC3)nc(-c3ccc(NC(=O)Nc4ccsc4)cc3)nc21` yielded a melting point of 272 °C.
The compound `CC(=O)N1c2ccccc2CC1c1ccccc1NC(=O)C(C)(C)C` (stereo not given) yielded a melting point of 184 to 186 °C.
`CCN(CC)C(=O)Cc1c(-c2ccc(F)cc2)nc2c(C)cc(C)nn12` had a melting point of 139 to 143 °C.
As for `Cc1oc(-c2ccccc2)nc1COc1cccc(CN(O)C(=O)N(C)O)c1`, the melting point fell in the range of 62 to 64 °C.
`c1cn(CCCCn2ccnc2)cn1` showed a melting point of 84 to 86 °C.
Turning to `Cc1ccc(-c2c(-c3ccc(S(N)(=O)=O)cc3)[nH]c3ccccc23)cc1`, the melting point was 293 to 295 °C.
In turn, `CCCS(=O)c1ccc(N)c([N+](=O)[O-])c1` (stereo not given) had a melting point of 109 to 112 °C.
`COc1ccc2c(C(=O)O)cn(C(C)C)c2c1` registered a melting point of 162 to 163 °C.
For `CCCCN(C)CCc1ccc(Nc2ncc3c(n2)-c2ccccc2C(c2cccc(Br)c2)C3)cc1` (stereo not given), the melting point fell in the range of 66 to 68 °C.
Turning to `CNS(=O)(=O)c1ccccc1Nc1nc(Nc2ccc3c(c2)CNC(=O)CCN3)ncc1Cl`, the melting point was in the range of 197 to 198 °C.
The same measure for `CCCCCCC(C(=O)OCC)S(=O)(=O)c1ccc(C)cc1` (stereo not given): 111 to 123 °C.
The same measure for `CCOC(=O)c1nc2cc(C(C(C)C)n3ccnc3)ccc2[nH]c1=O` (stereo not given): 230 °C; for `CCOC=Nc1noc(-c2cc(C(C)(C)C)c(O)c(C(C)(C)C)c2)n1`: 159 to 161 °C.
In turn, `CCn1c2ccc(C=NNc3ccccc3)cc2c2cc(C=NNc3ccccc3)ccc21` returned a melting point of 119 to 120 °C.
As to `COc1ccc2c(c1)C(=C1CCN(C)CC1)c1ccccc1C=C2`, the melting point was in the range of 112 to 114 °C.
In the case of `Cc1ccc(-c2nc(C(F)(F)F)nn2-c2ccc(S(N)(=O)=O)cc2)cc1`, the melting point lay within 245 to 247 °C.
`Cn1c(C(F)(F)F)cc(=O)n(-c2cc(OC(=O)C3CCCCC3)c(Cl)cc2F)c1=O`: the melting point was 97 to 101 °C.
Then `Cc1c(NC(=O)CC(C)(C)C)c(C)c2c(c1-c1cccs1)OCC2c1ccc(C(C)C)cc1` (stereo not given), with 155 to 156 °C.
`COC(=O)C(CO)N(Cc1cc(F)ccc1[N+](=O)[O-])S(=O)(=O)c1ccc(OC)cc1` (stereo not given): the melting point was in the range of 83 to 88 °C.
`C/C(=C\c1ccc(C2(C)OCCO2)cc1)c1ccc2c(c1)C(C)(C)CCC2(C)C` showed a melting point of 122 to 123 °C.
Compound `COc1cc(CNC(=O)c2ccc3c(c2)c(=O)n(Cc2ccccc2)c(=O)n3C)ccc1O` came in with a melting point of 183 °C.
With `CCOC(=O)c1c(N)c2cccnc2n(C2CCCCC2)c1=O`, the melting point lay within 172 to 175 °C.
